This is an account of results in patent US20240269139A1, “COMPOUNDS FOR TARGETED PROTEIN DEGRADATION OF KINASES” (DANA-FARBER CANCER INSTITUTE, INC., priority 2020, published 2024).

Where two headings read alike, the source gives them in different places.

Test [1] addresses protein kinases (human kinome) (Homo sapiens, UniProt O14874). The test is classed as cell-based. The conditions noted are these: BCKDK (O14874), experiment wp137.
The target of test [2] is protein kinases (human kinome) (Homo sapiens, UniProt Q9Y243). The test is classed as cell-based. The conditions noted are these: AKT3 (Q9Y243-1).
The target of test [3] is protein kinases (human kinome) (Homo sapiens, UniProt P31749). The test is classed as cell-based. The conditions noted are these: for logFC: AKT1 (P31749).
The target in test [4] is protein kinases (human kinome) (Homo sapiens, UniProt P31751). It is filed as cell-based. The conditions noted are these: AKT2 (P31751).
The target of test [5] is protein kinases (human kinome) (Homo sapiens, UniProt Q15118). The test is classed as cell-based. The conditions noted are these: PDK1 Q15118; experiment wp137.
The target in test [6] is T1, extended human kinome (kinase-like proteins) (Homo sapiens, UniProt Q7L8L6).
T1 sequence (Q7L8L6 28-764): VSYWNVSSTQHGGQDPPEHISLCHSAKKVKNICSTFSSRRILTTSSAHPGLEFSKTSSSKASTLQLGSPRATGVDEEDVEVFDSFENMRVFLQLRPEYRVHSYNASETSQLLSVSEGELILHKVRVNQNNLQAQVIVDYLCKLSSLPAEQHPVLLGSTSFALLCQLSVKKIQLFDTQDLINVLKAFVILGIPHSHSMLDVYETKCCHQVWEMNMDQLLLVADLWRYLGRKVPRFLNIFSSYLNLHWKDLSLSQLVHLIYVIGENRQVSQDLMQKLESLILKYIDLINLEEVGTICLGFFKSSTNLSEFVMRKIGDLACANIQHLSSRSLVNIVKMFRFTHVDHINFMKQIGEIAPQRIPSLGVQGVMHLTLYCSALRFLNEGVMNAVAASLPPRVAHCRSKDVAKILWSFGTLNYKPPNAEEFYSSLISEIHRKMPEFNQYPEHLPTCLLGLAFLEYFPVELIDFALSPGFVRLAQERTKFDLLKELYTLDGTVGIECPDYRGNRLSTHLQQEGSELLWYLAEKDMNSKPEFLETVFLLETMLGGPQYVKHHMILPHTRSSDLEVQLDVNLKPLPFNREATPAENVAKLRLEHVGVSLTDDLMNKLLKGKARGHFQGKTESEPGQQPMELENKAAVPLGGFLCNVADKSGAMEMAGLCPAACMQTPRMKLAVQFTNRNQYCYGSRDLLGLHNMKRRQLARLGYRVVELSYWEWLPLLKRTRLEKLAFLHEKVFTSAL
Description: Whole cell quantitative proteomics: extended kinome hits. As to conditions: Accession Q7L8L6; experiment wp137.

Test [7] has as its target T2, extended human kinome (kinase-like proteins) (Homo sapiens, UniProt Q9UHH9).
T2 sequence (Q9UHH9 1-426): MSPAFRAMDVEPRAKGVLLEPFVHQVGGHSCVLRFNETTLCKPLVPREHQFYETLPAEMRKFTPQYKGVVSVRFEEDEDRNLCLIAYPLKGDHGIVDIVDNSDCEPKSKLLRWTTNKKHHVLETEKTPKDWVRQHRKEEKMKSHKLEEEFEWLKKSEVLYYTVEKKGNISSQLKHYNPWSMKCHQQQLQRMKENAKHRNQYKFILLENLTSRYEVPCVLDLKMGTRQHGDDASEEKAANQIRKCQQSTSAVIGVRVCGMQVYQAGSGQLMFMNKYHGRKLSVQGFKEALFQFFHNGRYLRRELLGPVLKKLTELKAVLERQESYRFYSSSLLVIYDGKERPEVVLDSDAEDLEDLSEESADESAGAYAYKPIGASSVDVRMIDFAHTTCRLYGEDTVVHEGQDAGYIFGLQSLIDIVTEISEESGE
The test is described as above. As to conditions: Accession Q9UHH9.

Test [8] deals with extended human kinome (kinase-like proteins) (Homo sapiens, UniProt P27144). The test is described as above. As to conditions: experiment wp137.
The target in test [9] is protein kinases (human kinome) (Homo sapiens, UniProt P11802). The test is classed as cell-based. The conditions noted are these: experiment wp135, 8 hr.
The target of test [10] is T3, protein kinases (human kinome) (Homo sapiens, UniProt Q9UEE5).
T3 sequence (Q9UEE5 1-414): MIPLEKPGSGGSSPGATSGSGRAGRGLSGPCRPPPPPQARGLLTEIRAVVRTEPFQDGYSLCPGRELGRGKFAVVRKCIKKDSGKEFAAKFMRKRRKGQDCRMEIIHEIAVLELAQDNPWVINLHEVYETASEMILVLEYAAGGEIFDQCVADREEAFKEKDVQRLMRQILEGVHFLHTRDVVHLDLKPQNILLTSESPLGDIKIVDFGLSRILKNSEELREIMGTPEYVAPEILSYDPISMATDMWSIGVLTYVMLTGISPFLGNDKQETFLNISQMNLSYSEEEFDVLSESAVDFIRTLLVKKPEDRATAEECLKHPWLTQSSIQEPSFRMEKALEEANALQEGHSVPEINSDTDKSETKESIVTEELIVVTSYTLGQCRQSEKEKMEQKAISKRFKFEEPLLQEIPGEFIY
The test is classed as cell-based. The conditions noted are these: STK17A Q9UEE5; experiment wp135; 8 hr.

Where [11] appears, read: experiment wp104, direction down.
Where [12] appears, read: experiment wp137, direction down.
[13] abbreviates: experiment wp135, 8 hr, direction down.

Chain of protein kinases (human kinome) (Homo sapiens, UniProt P31751) (P31751 whole entry): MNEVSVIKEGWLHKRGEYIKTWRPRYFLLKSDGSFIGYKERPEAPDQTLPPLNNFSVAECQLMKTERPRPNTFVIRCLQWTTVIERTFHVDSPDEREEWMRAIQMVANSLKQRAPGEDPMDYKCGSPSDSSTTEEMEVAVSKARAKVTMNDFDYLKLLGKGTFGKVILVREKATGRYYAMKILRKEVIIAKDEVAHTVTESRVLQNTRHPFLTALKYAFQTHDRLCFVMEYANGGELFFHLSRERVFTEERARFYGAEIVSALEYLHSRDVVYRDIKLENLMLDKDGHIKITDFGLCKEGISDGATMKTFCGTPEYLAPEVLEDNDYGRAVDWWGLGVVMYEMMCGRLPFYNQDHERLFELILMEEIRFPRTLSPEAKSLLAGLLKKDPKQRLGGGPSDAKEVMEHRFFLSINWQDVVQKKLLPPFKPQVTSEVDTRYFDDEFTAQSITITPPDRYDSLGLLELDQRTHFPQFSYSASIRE
Chain of protein kinases (human kinome) (Homo sapiens, UniProt Q9Y243) (Q9Y243 whole entry): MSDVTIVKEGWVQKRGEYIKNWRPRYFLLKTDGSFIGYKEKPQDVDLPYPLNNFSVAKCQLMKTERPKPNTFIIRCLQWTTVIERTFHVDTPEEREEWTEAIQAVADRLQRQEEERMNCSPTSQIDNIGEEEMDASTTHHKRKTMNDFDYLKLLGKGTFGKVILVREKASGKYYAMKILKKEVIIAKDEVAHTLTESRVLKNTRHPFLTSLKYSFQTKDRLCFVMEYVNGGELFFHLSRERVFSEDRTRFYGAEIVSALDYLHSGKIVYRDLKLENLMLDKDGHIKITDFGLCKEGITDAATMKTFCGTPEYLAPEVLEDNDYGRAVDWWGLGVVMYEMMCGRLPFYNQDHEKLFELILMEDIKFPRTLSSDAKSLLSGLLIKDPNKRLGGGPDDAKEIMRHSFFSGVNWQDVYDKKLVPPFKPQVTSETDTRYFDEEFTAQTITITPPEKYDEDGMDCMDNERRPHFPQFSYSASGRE
Chain of protein kinases (human kinome) (Homo sapiens, UniProt P31749) (P31749 whole entry): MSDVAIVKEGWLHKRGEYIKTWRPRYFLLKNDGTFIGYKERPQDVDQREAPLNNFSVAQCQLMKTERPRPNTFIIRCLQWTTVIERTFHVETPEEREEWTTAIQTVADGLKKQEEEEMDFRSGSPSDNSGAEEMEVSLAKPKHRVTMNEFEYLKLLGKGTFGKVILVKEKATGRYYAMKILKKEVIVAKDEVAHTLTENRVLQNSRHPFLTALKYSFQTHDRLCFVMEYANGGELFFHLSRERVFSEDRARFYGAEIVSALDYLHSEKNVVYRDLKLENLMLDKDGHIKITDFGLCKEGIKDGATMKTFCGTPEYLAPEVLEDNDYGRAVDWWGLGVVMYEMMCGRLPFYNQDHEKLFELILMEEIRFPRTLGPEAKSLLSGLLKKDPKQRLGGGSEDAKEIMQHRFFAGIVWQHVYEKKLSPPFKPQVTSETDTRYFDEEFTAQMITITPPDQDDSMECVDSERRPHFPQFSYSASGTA
Chain of protein kinases (human kinome) (Homo sapiens, UniProt P11802) (P11802 whole entry): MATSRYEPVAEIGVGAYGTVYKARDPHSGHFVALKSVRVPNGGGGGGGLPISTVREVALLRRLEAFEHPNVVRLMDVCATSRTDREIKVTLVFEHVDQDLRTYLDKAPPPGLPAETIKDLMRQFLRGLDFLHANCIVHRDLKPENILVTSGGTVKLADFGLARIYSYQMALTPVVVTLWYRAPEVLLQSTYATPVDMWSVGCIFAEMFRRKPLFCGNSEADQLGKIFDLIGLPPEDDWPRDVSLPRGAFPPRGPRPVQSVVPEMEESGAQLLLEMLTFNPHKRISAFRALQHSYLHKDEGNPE
Chain of protein kinases (human kinome) (Homo sapiens, UniProt Q15118) (Q15118 29-436): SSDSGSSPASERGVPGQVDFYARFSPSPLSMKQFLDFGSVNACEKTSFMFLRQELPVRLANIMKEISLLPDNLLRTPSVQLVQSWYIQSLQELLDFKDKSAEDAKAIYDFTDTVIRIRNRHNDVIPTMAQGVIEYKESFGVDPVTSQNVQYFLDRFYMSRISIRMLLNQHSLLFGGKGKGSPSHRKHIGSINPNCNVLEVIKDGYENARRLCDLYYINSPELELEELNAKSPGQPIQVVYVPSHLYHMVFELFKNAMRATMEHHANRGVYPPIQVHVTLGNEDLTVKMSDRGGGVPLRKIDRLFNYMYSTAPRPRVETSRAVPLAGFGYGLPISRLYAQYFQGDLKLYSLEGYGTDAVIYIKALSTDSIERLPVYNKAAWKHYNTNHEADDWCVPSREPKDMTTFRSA
Chain of extended human kinome (kinase-like proteins) (Homo sapiens, UniProt P27144) (P27144 whole entry): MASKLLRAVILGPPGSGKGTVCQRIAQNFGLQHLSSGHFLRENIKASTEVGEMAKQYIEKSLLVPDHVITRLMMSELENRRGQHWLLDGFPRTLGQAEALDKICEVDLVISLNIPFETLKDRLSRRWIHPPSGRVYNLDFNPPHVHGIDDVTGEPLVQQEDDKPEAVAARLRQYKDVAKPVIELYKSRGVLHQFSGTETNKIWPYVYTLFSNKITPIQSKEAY

Consider `C[C@@H]1C[C@@H](O)c2ncnc(N3CCN(C(=O)[C@H](CNCCCCCCCCNC(=O)COc4cccc5c4C(=O)N(C4CCC(=O)NC4=O)C5=O)c4ccc(Cl)cc4)CC3)c21` (stereo partly shown) [INY.02.164], for which the logFC was −0.36 in [1]; −0.36 in test [1] (direction down); −1.478 in [2] (experiment wp104); −1.478 in test [2] (setting [11]); −3.147 in test [2] (experiment wp137); −3.147 in test [2] (setting [12]). Moreover, the logFC is reported as −0.7926 in [3] (experiment wp104); −3.206 in test [3] (experiment wp137); −1.078 in test [4] (experiment wp104); −1.078 in test [4] (setting [11]); −3.156 in [4] (experiment wp137); −3.156 in test [4] (setting [12]). The compound also displayed a logFC in test [5] of −0.4419. Besides, the “logFC of AKT1 (P31749)” value in test [3] (Experiment wp104) was −0.7926; in test [3] (experiment wp137), −3.206. Further, the “logFC PDK1” value in test [5] is −0.4419. Besides, the “logFC FASTKD5” value in [6] is −0.3422. In [7] (experiment wp137), the “logFC IP6K2” value is −0.5449. Also, the “logFC AK4 (P27144)” value in [8] was −0.5601.

Consider `C[C@@H]1C[C@@H](O)c2ncnc(N3CCN(C(=O)[C@H](CNCCCCCCCCCCc4cccc5c4C(=O)N(C4CCC(=O)NC4=O)C5=O)c4ccc(Cl)cc4)CC3)c21` (stereo partly shown) [INY.03.041_01], for which the logFC was −2.215 in test [2] (experiment wp135, 8 hr); −2.215 in test [2] (setting [13]); −2.273 in test [3] (experiment wp135, 8 hr); −2.274 in test [4] (experiment wp135, 8 hr); −2.274 in [4] (setting [13]); −0.497 in test [10]. In addition, the “logFC CDK4 (P11802)” value in test [9] is reported as −0.3281. The “logFC of AKT1 (P31749)” value in test [3] (experiment wp135, 8 hr) was −2.273. In addition, the “logFC IP6K2” value in test [7] (experiment wp135, 8 hr) is listed as −0.6456.
